Source: patent US20180369264A1, “COMBINATION OF A CARDIAC STEROID AND AN AKT INHIBITOR FOR THE TREATMENT OF CARDIOVASCULAR DISEASES AND DISORDERS” (YISSUM RESEARCH DEVELOPMENT COMPANY OF THE HEBREW …, priority 2015, published 2018)

What was measured:
[1] = assay type: in vivo, rat; conditions: 10 day post MI
Procedure: Male Wister rats (150-175 g body weight) were used. Left anterior descending artery (LAD)-ligation was performed in all animals. […] All injected solutions contained 9% DMSO. Heart contractility in-vivo was monitored using echocardiography. At the end of the treatment period, animals were sacrificed and heart and blood samples were harvested for analysis. Blood samples were also collected (from the eye) at baseline and 24 hours post myocardial infarction (MI).
Blood samples were collected from rat eye at baseline and at 24 hrs. Post LAD-ligation. The plasmas of 11 animals were tested for the indicated biomarkers of MI.

[2] = system: Ca^2+ transients in wt zebrafish isolated adult heart; assay: Ca^2+ transients in wt zebrafish isolated adult heart; conditions: for Amplitude (Maximal deflection from baseline) / Area (Area under the transient relative to baseline) / Decay slope (−Δ Fluorescence in the linear phase/sec) / Rate / Rise slope (+Δ Fluorescence in the linear phase/sec): Ouabain 200 μM, MK-2206 1 nM
Procedure: Spontaneous Ca^2+ transients were measured in isolated hearts from adult zebrafish. The zebrafish were stunned by a blow to the head and the hearts were removed quickly and placed in Dulbecco's Modified Eagle's Medium (DMEM) containing 10% Fetal Bovine Serum (FBS) at room temperature. A total 3-5 hearts were placed in a small Petri dish containing 100 μl Krebs-Ringer's solution (119 mM NaCl, 2.5 mM KCl, 1 mM NaH2PO4, 2.5 mM CaCl2, 1.3 mM MgCl2, 20 mM HEPES and 11 mM D-glucose) with 0.01 mM Fura-2 AM (Biotium, Inc., CA, USA) in DMEM-FBS. Following incubation for 10 min (37° C., 5% CO2), 150 μl of Krebs-Ringer's solution were added to the Petri dish which was incubated for an additional 30 minutes. The dye was removed from the solution by two incubations (10 minutes each, room temperature) in DMEM-FBS solution. Intracellular Ca^2+ transients were measured in stabilizing medium containing 1% low-melt agarose in Krebs-Ringer's solution. The hearts were kept for 30 minutes in the presence of MK-2206 (or saline) and then underwent excitation/emission cycles for 2 minutes at 340 and 380 nm with 510 nm emission using a PTI fluorimetric system (Photon Technology International, Madison, USA). Ouabain was then added and the excitation/emission cycles were monitored for 8 minutes. The Ca^2+ levels are presented as the ratio of 340/380 nm fluorescence emission.

[3] = system: adult acc mutant primary cardiomyocytes; assay: acc mutant primary cardiomyocyte contractility; assay type: cell-based, zebrafish; conditions: for amplitude of contractility: 0.1 nM ouabain or 1 nM MK-2206 alone; for Amplitude / Contraction Rate (−dv/dt) / Relaxation Rate (+dv/dt): Acc mutant, 0.1 nM Oua, 1 nM MK, 20 minutes, 0.5 Hz
Procedure: Adult (4 to 12-month-old) ventricular myocytes were obtained by enzymatic dissociation (with collagenase II and IV, at 5 mg/ml, each). The zebrafish were stunned by a blow to the head and the brain was pithed. The heart was quickly removed and placed in a small Petri dish containing 10 ml isolation solution: 100 mM NaCl, 10 mM KCl, 1.2 mM KH2PO4, 4 mM MgSO4, 50 mM taurine, 20 mM glucose, and 10 mM Hepes, pH 6.9. The ventricle was cut free from the bulbus and atrium under a binocular. Ventricles from 3 fish were incubated for 45 minutes at 32° C. in a solution containing perfusion buffer (150 mM NaCl, 5.4 mM KCl, 1.5 mM MgSO4, 0.4 mM NaH2PO4, 2 mM CaCl2, 10 mM glucose, and 10 mM Hepes, pH 7.7). Collagenases II and IV (Gibco, NY, USA, 5 mg/ml each) and additional CaCl2 (2.012 mM final concentration) were added. Following Eppendorf centrifugation (1 minute, 250×g at room temperature) the precipitated cells were suspended in 1 ml perfusion buffer for 30 minutes at room temperature before use.
Cells were transferred to a chamber with a quartz base and examined using an inverted epifluorescence microscope (Nikon Diaphot 200, Japan). The myocytes were field-stimulated (0.5 Hz, 70 V, square waves) and contractions were measured using a video motion edge detector (Crescent Electronics, Sandy, Utah, USA) at the rate of 5 Hz. Cardiomyocyte performance was calculated as the percentage of resting cell length. The slopes of contraction and relaxation (+dL/dt and −dL/dt) were calculated from the linear portions of the changes in contractility. 9 cells per each group were measured. Each of the experiments was repeated at least 3 times with identical results.

LAD-ligated rats = assay: Heart contractility (echocardiography: SF, HR) in LAD-ligated rats; assay type: in vivo, rat; conditions: for effect on heart rate: 24 hours, 3 and 6 days post MI; for SF improvement relative to 24 hours post MI: ouabain 0.8 mg/kg/day, MK-2206 12 mg/kg/day, 3, 6 and 10 days post MI
Procedure: Male Wister rats (150-175 g body weight) were used. Left anterior descending artery (LAD)-ligation was performed in all animals. The rats were divided to four groups, each treated with subcutaneous injection with saline (0.5 ml/kg/day), ouabain (0.8-8 mg/kg/day), MK-2206 (12 mg/Kg/day) or a combination of MK-2206 and ouabain. All injected solutions contained 9% DMSO. Heart contractility in-vivo was monitored using echocardiography. At the end of the treatment period, animals were sacrificed and heart and blood samples were harvested for analysis. Blood samples were also collected (from the eye) at baseline and 24 hours post myocardial infarction (MI).
Rats were anesthetized with 10% ketamine, 2% xylazine (0.1 ml/kg) and ventilated with a small animal respirator (Harvard). The heart was exposed via left sternotomy, and the LAD-ligation was induced by placing a 6-0 silk suture around the left anterior descending coronary artery near the atrial auricle. The animals were allowed to recover and treated with 0.5 mg/100 g Tramadol Hydrochloride by subcutaneous injection for post-operative analgesia.
Echocardiograms were performed on rats anesthetized with 2% isoflurane at baseline, at 24 hours, as well as at 3, 6 and 10 days post LAD-ligation, using a VEVO 770 equipped with a 30 MHz linear transthoracic transducer (VisualSonics). Measurements were performed in triplicate using the leading-edge convention for myocardial borders as defined by the […]. Left ventricular, end-diastolic and end-systolic diameters (LVEDD and LVESD), diastolic and systolic interventricular septal diameters (IVSD and IVSS), left ventricular diastolic area (LVEDA), left ventricular systolic area (LVESA), and heart rate (HR) were measured. Shortening fraction (SF) was calculated by the equation: SF (%)=(LVEDD−LVESD)/LVEDD×100. Heart rate was measure by peak intervals of the echocardiography measurements. All measurements were performed by an individual who was blind to the entire experimental protocol and animal treatments.

## NC1(c2ccc(-c3nc4ccn5c(=O)[nH]nc5c4cc3-c3ccccc3)cc2)CCC1 [MK-2206]
[1]
  CPK: 363.5 ± 88.59 unit/L
  Trop-T: 0.07 ± 0.06 ng/mL
[2]
  Amplitude (Maximal deflection from baseline): 4.8 ± 0.13
  Area (Area under the transient relative to baseline): 2.81 ± 0.19
  Decay slope (−Δ Fluorescence in the linear phase/sec): 4.65 ± 0.54
  Rate: 48 ± 4.8 wave/min
  Rise slope (+Δ Fluorescence in the linear phase/sec): 1.65 ± 0.28
[3]
  amplitude of contractility: did not affect the amplitude
  Amplitude: 0.15 ± 0.02
  Contraction Rate (−dv/dt): 2.61 ± 0.74
  Relaxation Rate (+dv/dt): 0.98 ± 0.34
LAD-ligated rats
  effect on heart rate: did not affect significantly heart rate
  SF improvement relative to 24 hours post MI: did not result in SF improvement

## C[C@@H]1O[C@@H](O[C@H]2C[C@@H](O)[C@]3(CO)[C@H]4[C@H](O)C[C@]5(C)[C@@H](C6=CC(=O)OC6)CC[C@]5(O)[C@@H]4CC[C@]3(O)C2)[C@H](O)[C@H](O)[C@H]1O [ouabain, 3-(alpha-L-Rhamnopyranosyloxy)-1beta,5beta,11alpha,14,19-pentahydroxy-5beta-card-20(22)-enolide]
[1]
  CPK: 616.6 ± 197.6 unit/L
  Trop-T: 0.24 ± 0.17 ng/mL
[2]; 200 μM ouabain
  increase in amplitude of the Ca^2+ transients: 27%
  increase in decay slope of the Ca^2+ transients: 86%
  increase in rise slope of the Ca^2+ transients: 61%
[2]
  Amplitude (Maximal deflection from baseline): 6.59 ± 0.71
  Area (Area under the transient relative to baseline): 2.94 ± 0.44
  Decay slope (−Δ Fluorescence in the linear phase/sec): 20 ± 3.51
  Rate: 52 ± 6.8 wave/min
  Rise slope (+Δ Fluorescence in the linear phase/sec): 7.84 ± 2.02
[3]
  amplitude of contractility: did not affect the amplitude
  Amplitude: 0.14 ± 0.03
  Contraction Rate (−dv/dt): 2.43 ± 0.84
  Relaxation Rate (+dv/dt): 0.07 ± 0.05
[3]; ouabain in the presence of Akt inhibitor
  increase in the contraction amplitude: 67%
LAD-ligated rats; 0.8 mg/kg/day, by itself
  effect on shortening fraction (SF) following LAD-ligation: did not increase SF
LAD-ligated rats; 8 mg/kg/day
  effect on shortening fraction (SF) following LAD-ligation: significantly increased the SF of the heart starting at the 3rd day of treatment
LAD-ligated rats
  effect on heart rate: did not affect significantly heart rate
  SF improvement relative to 24 hours post MI: did not result in SF improvement
